# Target: T1, human TLR8 (Homo sapiens, UniProt Q9NR97)
# T1 sequence (Q9NR97 27-1041): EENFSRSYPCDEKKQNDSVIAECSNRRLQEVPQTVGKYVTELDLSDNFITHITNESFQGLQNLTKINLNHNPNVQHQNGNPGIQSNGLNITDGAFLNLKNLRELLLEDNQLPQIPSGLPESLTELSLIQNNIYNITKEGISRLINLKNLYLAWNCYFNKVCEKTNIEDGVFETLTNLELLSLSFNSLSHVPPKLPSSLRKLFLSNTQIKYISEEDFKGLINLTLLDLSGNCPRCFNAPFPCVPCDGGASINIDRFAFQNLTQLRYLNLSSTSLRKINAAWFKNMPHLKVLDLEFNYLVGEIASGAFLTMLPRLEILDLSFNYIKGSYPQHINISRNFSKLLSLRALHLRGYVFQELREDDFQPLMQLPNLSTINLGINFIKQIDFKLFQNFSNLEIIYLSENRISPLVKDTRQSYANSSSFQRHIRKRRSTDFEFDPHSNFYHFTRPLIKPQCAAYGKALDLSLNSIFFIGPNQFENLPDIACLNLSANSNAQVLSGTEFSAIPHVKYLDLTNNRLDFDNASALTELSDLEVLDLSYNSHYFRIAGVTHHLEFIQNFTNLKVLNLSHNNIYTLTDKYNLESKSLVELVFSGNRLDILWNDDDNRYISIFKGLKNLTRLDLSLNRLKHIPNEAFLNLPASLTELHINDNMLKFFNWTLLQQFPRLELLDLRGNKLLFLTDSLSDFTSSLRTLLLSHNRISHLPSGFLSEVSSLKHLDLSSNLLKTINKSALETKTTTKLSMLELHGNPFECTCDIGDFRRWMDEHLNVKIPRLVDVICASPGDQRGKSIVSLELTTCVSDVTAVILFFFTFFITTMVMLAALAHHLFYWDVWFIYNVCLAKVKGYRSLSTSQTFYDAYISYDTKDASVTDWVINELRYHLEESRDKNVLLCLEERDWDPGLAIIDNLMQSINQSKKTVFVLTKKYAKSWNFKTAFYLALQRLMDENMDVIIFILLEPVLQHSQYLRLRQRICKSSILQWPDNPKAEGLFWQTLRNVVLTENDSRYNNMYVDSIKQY
# Experiment: HEK293-Blue-hTLR-8 cells assay
# Assay type: cell-based
# Conditions: HEK293-Blue-hTLR8 cells, R848 stimulation, 20 hrs, SEAP reporter; read-out: HEK/hTLR8 IC50
# From the text: HEK293-Blue-hTLR-8 Cells Assay:
# A stable HEK293-Blue-hTLR-8 cell line was purchased from InvivoGen (Cat. #: hkb-htlr8, San Diego, California, USA). These cells were originally designed for studying the stimulation of human TLR8 by monitoring the activation of NF-κB. A SEAP (secreted embryonic alkaline phosphatase) reporter gene was placed under the control of the IFN-β minimal promoter fused to five NF-κB and AP-1-binding sites. The SEAP was induced by activating NF-κB and AP-1 via stimulating HEK-Blue hTLR8 cells with TLR8 ligands. Therefore the reporter expression was declined by TLR8 antagonist under the stimulation of a ligand, such as R848, for incubation of 20 hrs. The cell culture supernatant SEAP reporter activity was determined using QUANTI-Blue™kit (Cat. #: rep-qb1, Invivogen, San Diego, Ca, USA) at a wavelength of 640 nm, a detection medium that turns purple or blue in the presence of alkaline phosphatase.
# HEK293-Blue-hTLR8 cells were incubated at a density of 250,000-450,000 cells/mL in a volume of 170 μL in a 96-well plate in Dulbecco's Modified Eagle's medium (DMEM) containing 4.5 g/L glucose, 50 U/mL penicillin, […], […], 2 mM L-glutamine, 10% (v/v) heat-inactivated fetal bovine serum with addition of 20 μL test compound 1n a serial dilution in the presence of final DMSO at 1% and 10 μL of 60 uM R848 in above DMEM, perform incubation under 37° C. in a CO2 incubator for 20 hrs. Then 20 μL of the supernatant from each well was incubated with 180 μL Quanti-blue substrate solution at 37° C. for 2 hrs and the absorbance was read at 620-655 nm using a spectrophotometer. The signaling pathway that TLR8 activation leads to downstream NF-κB activation has been widely accepted, and therefore similar reporter assay was modified for evaluating TLR8 antagonist.
row,SMILES,IC50 [nM]
1,"C[C@@H]1CN(c2ccc(C#N)c3nccnc23)C[C@@H]2c3ccc(N4CCNCC4)cc3CN12 [Example 7, 8-[(4R,10bS)-4-methyl-8-piperazin-1-yl-3,4,6,10b-tetrahydro-1H-pyrazino[2,1-a]isoindol-2-yl]quinoxaline-5-carbonitrile]",< 3.2
2,"C[C@@H]1CN(c2ccc(C#N)c3ncccc23)C[C@@H]2c3cccc(N4CCNCC4)c3CN12 [Example 8, 5-[(4R,10bS)-4-methyl-7-piperazin-1-yl-3,4,6,10b-tetrahydro-1H-pyrazino[2,1-a]isoindol-2-yl]quinoline-8-carbonitrile]",< 3.2
3,"C[C@@H]1CN(c2ccc(C#N)c3ncccc23)C[C@@H]2c3ccc(C4CCNCC4)cc3CN12 [Example 9, 5-[(4R,10bS)-4-methyl-8-(4-piperidyl)-3,4,6,10b-tetrahydro-1H-pyrazino[2,1-a]isoindol-2-yl]quinoline-8-carbonitrile]",< 3.2
4,"C[C@@H]1CN(c2ccc(C#N)c3ncccc23)C[C@@H]2c3ccc(N4CCNC[C@@H]4CO)cc3CN12 [Example 10, 5-[(4R,10bS)-8-[(2R)-2-(hydroxymethyl)piperazin-1-yl]-4-methyl-3,4,6,10b-tetrahydro-1H-pyrazino[2,1-a]isoindol-2-yl]quinoline-8-carbonitrile]",< 3.2
5,"C[C@@H]1CN(c2ccc(C#N)c3ncccc23)C[C@@H]2c3ccc(N4CCNC[C@H]4CO)cc3CN12 [Example 11, 5-[(4R,10S)-8-[(2S)-2-(hydroxymethyl)piperazin-1-yl]-4-methyl-3,4,6,10b-tetrahydro-1H-pyrazino[2,1-a]isoindol-2-yl]quinoline-8-carbonitrile]",< 3.2
6,"C[C@@H]1CN(c2ccc(C#N)c3ncccc23)C[C@@H]2c3ccc(N4CCN[C@H](CO)C4)cc3CN12 [Example 12, 5-[(4R,10bS)-8-[(3S)-3-(hydroxymethyl)piperazin-1-yl]-4-methyl-3,4,6,10b-tetrahydro-1H-pyrazino[2,1-a]isoindol-2-yl]quinoline-8-carbonitrile]",< 3.2
7,"C[C@@H]1CN(c2ccc(C#N)c3ncccc23)C[C@@H]2c3ccc(N4CC5CNCC(C4)O5)cc3CN12 [Example 14, 5-[(4R,10bS)-4-methyl-8-(9-oxa-3,7-diazabicyclo[3.3.1]nonan-3-yl)-3,4,6,10b-tetrahydro-1H-pyrazino[2,1-a]isoindol-2-yl]quinoline-8-carbonitrile]",< 3.2
8,"C[C@@H]1CN(c2ccc(C#N)c3ncccc23)C[C@@H]2c3ccc(N4CCNCC(O)C4)cc3CN12 (stereo partly drawn) [Example 15, 5-[(4R,10bS)-8-(6-hydroxy-1,4-diazepan-1-yl)-4-methyl-3,4,6,10b-tetrahydro-1H-pyrazino[2,1-a]isoindol-2-yl]quinoline-8-carbonitrile]",< 3.2
9,"C[C@@H]1CN(c2ccc(C#N)c3ncccc23)C[C@@H]2c3ccc(N4CC(N)C5(COC5)C4)cc3CN12 (stereo partly drawn) [Example 18, 5-[(4R,10bS)-8-(5-amino-2-oxa-7-azaspiro[3.4]octan-7-yl)-4-methyl-3,4,6,10b-tetrahydro-1H-pyrazino[2,1-a]isoindol-2-yl]quinoline-8-carbonitrile]",< 3.2
10,"C[C@@H]1CN(c2ccc(C#N)c3ncccc23)C[C@@H]2c3ccc(N4CCC(N)(CO)C4)cc3CN12 (stereo partly drawn) [Example 19, 5-[(4R,10bS)-8-[3-amino-3-(hydroxymethyl)pyrrolidin-1-yl]-4-methyl-3,4,6,10b-tetrahydro-1H-pyrazino[2,1-a]isoindol-2-yl]quinoline-8-carbonitrile]",< 3.2
11,"C[C@@H]1CN(c2ccc(C#N)c3ncccc23)C[C@@H]2c3ccc(N4CC[C@@H](N)C4)cc3CN12 [Example 20, 5-[(4R,10bS)-8-[(3R)-3-aminopyrrolidin-1-yl]-4-methyl-3,4,6,10b-tetrahydro-1H-pyrazino[2,1-a]isoindol-2-yl]quinoline-8-carbonitrile]",< 3.2
12,"C[C@@H]1CN(c2ccc(C#N)c3ncccc23)C[C@@H]2c3ccc(N4CC(N)C4)cc3CN12 [Example 22, 5-[(4R,10bS)-8-(3-aminoazetidin-1-yl)-4-methyl-3,4,6,10b-tetrahydro-1H-pyrazino[2,1-a]isoindol-2-yl]quinoline-8-carbonitrile]",< 3.2
13,"CN[C@H]1CN(c2ccc3c(c2)CN2[C@H](C)CN(c4ccc(C#N)c5ncccc45)C[C@H]32)C[C@@H]1OC [Example 23, 5-[(4R,10bS)-8-[(3S,4S)-3-methoxy-4-(methylamino)pyrrolidin-1-yl]-4-methyl-3,4,6,10b-tetrahydro-1H-pyrazino[2,1-a]isoindol-2-yl]quinoline-8-carbonitrile]",< 3.2

# Next, values leading:
row,IC50 [nM],SMILES
1,< 3.2,"CO[C@H]1CN(c2ccc3c(c2)CN2[C@H](C)CN(c4ccc(C#N)c5ncccc45)C[C@H]32)C[C@@H]1N (relative stereo) [Example 16, 5-[(4R,10bS)-8-[trans-3-amino-4-methoxy-pyrrolidin-1-yl]-4-methyl-3,4,6,10b-tetrahydro-1H-pyrazino[2,1-a]isoindol-2-yl]quinoline-8-carbonitrile]"
2,< 3.2,"CO[C@@H]1CN(c2ccc3c(c2)CN2C3CN(c3ccc(C#N)c4ncccc34)C[C@H]2C)C[C@@H]1N (relative stereo) [Example 17, 5-[(4R,10bS)-8-[cis-3-amino-4-methoxy-pyrrolidin-1-yl]-4-methyl-3,4,6,10b-tetrahydro-1H-pyrazino[2,1-a]isoindol-2-yl]quinoline-8-carbonitrile]"
3,< 3.2,"C[C@@H]1CN(c2ccc(C#N)c3ncccc23)CC2c3ccc(N4C[C@H](N)[C@@H](O)C4)cc3CN21 (relative stereo) [Example 21, 5-[(4R,10bS)-8-[trans-3-amino-4-hydroxy-pyrrolidin-1-yl]-4-methyl-3,4,6,10b-tetrahydro-1H-pyrazino[2,1-a]isoindol-2-yl]quinoline-8-carbonitrile]"
4,< 3.2,"CO[C@H]1CN(c2ccc3c(c2)CN2C3CN(c3ccc(C#N)c4ncccc34)C[C@H]2C)C[C@@H]1N (single isomer, unassigned) [Example 16A]"
5,< 3.2,"COC1CN(c2ccc3c(c2)CN2C3CN(c3ccc(C#N)c4ncccc34)C[C@H]2C)CC1N (single isomer, unassigned) [Example 16B]"
6,0.9,"C[C@@H]1CN(c2ccc(C#N)c3ncccc23)C[C@@H]2c3ccc(N4C[C@@H](N)[C@H](O)C4)cc3CN12 (single isomer, unassigned) [Example 40B]"
7,< 3.2,"N#Cc1ccc(N2CCN3Cc4cc(N5CCNCC5)ccc4C3C2)c2scnc12 (stereo not shown) [Example 4, 7-(8-piperazin-1-yl-3,4,6,10b-tetrahydro-1H-pyrazino[2,1-a]isoindol-2-yl)-1,3-benzothiazole-4-carbonitrile]"
8,< 3.2,"C[C@@H]1CN(c2ccc(C#N)n3nccc23)C[C@@H]2c3ccc(N4CCNCC4)cc3CN12 [Example 5, 4-[(4R,10bS)-4-methyl-8-piperazin-1-yl-3,4,6,10b-tetrahydro-1H-pyrazino[2,1-a]isoindol-2-yl]pyrazolo[1,5-a]pyridine-7-carbonitrile]"
9,< 3.2,"C[C@@H]1CN(c2ccc(C#N)c3ncsc23)C[C@@H]2c3ccc(N4CCNCC4)cc3CN12 [Example 6, 7-[(4R,10bS)-4-methyl-8-piperazin-1-yl-3,4,6,10b-tetrahydro-1H-pyrazino[2,1-a]isoindol-2-yl]-1,3-benzothiazole-4-carbonitrile]"
